Reference: patent US20220370416A1, “COMPOUNDS AND METHODS FOR TARGETED DEGRADATION OF KRAS” (Arvinas Operations, Inc., priority 2020, published 2022)

Tests used:
[1] = Erk signaling (pErk, total Erk) by immunoblot in SW1573 cells; type: cell-based; settings: SW1573, 2.5 μM, all time points
Experimental: (§1) Signaling kinetics were monitored during a 24 hour time course in MIA PaCa2, NCI-H23, and SW1573 cells treated with 2.5 μM LC-2. Modulation of Erk signaling by both MRTX and LC-2 occurs within 6 hours in MIA PaCa-2 and NCI-H23 cells (FIGS. 10A, 10B, and 11). pErk was suppressed by both compounds at 6 and 24 hours in each cell lines. […] Total Erk was increased in LC-2 treated cells compared to DMSO at all time points indicating the initiation of a positive feedback loop upon KRAS^G12C degradation and pErk inhibition.
(§2) NCI-H2030 (CRL-5914), MIA PaCa-2 (CRL-1420), NCI-H23 (CRL-5800), NCI-H358 (CRL-5807), and HCT-116 (CCL-247) cells were obtained from ATCC, expanded immediately, and frozen down. Vials were thawed and used within 20 passages. SW1573 cells were a gift from Arvinas and were handled in the same manner. NCI-H2030, NCI-H23, and NCI-H358 were cultured in RPMI (ATCC30-2001) supplemented with 10% FBS (Biological Industries; cat. no. S1480) and 1% Penicillin-Streptomycin (ThermoFisher; cat. no. 15140122). HCT-116 cells were maintained in high glucose DMEM (ThermoFisher; cat. no. 11965084) supplemented as above. MIA PaCa-2 cells were cultured in high glucose DMEM supplemented with 10% FBS, 2.5% horse serum (ThermoFisher; cat. no. 26050-088; lot 2109875), and 1% Penicillin-Streptomycin. SW1573 cells were maintained in DMEM/F12 Nutrient Mix with GlutaMAX supplement (ThermoFisher; cat. no. 10565018) with 10% FBS and 1% Penicillin-Streptomycin added. DPBS (ThermoFisher; cat. no. 14190250) was used to wash cells and 0.25% Trypsin-EDTA (ThermoFisher; cat. no. […]) was used to detach cells for passaging. […] The VHL ligand was generously provided by Arvinas. […]
(§3) Cell lysates were clarified at 21000×g for 15 mins at 4° C. Protein levels were quantified using a 50:1 mixture of bicinchoninic acid solution (Millipore Sigma; cat. no. B9643) and 4% (w/v) copper(II) sulfate solution (Millipore Sigma; cat. no. C2284) incubated at 37° C. for 30 mins. Absorbance values at 560 nm were read on an EnVision 2101 Multilabel Reader (PerkinElmer). […]

pErk [2] = test: as above; type: cell-based; settings: SW1573, 2.5 μM
Experimental: as §1, §2, §3

pErk [3] = test system: pErk
Experimental: The ability of LC-2 to modulate Erk signaling was investigated in NCI-H2030 and NCI-H23 cells during a 24 hour dose response.
NCI-H2030 (CRL-5914), MIA PaCa-2 (CRL-1420), NCI-H23 (CRL-5800), NCI-H358 (CRL-5807), and HCT-116 (CCL-247) cells were obtained from ATCC, expanded immediately, and frozen down. Vials were thawed and used within 20 passages. SW1573 cells were a gift from Arvinas and were handled in the same manner. NCI-H2030, NCI-H23, and NCI-H358 were cultured in RPMI (ATCC30-2001) supplemented with 10% FBS (Biological Industries; cat. no. S1480) and 1% Penicillin-Streptomycin (ThermoFisher; cat. no. 15140122). HCT-116 cells were maintained in high glucose DMEM (ThermoFisher; cat. no. 11965084) supplemented as above. MIA PaCa-2 cells were cultured in high glucose DMEM supplemented with 10% FBS, 2.5% horse serum (ThermoFisher; cat. no. 26050-088; lot 2109875), and 1% Penicillin-Streptomycin. SW1573 cells were maintained in DMEM/F12 Nutrient Mix with GlutaMAX supplement (ThermoFisher; cat. no. 10565018) with 10% FBS and 1% Penicillin-Streptomycin added. DPBS (ThermoFisher; cat. no. 14190250) was used to wash cells and 0.25% Trypsin-EDTA (ThermoFisher; cat. no. 252000-056) was used to detach cells for passaging. […] The VHL ligand was generously provided by Arvinas.
Between 2.5×10^5 and 6.0×10^5 cells were seeded into 6-well plates (Corning; cat. no. 353046). The next day, media was removed and cells were treated with 2.5 μM LC-2 for 1, 2, 4, 8, 12, or 24 hours. […]

KRAS^G12C = KRAS^G12C (Homo sapiens, UniProt P01116, G12C); test: KRAS^G12C degradation in homozygous MIA PaCa-2 cells; type: cell-based; parameters: endogenous in cells; host or cells: MIA PaCa-2; settings: homozygous MIA PaCa-2 cells (FIG. 4B)
KRAS^G12C, sequence (P01116 1-188 isoform P01116-2 G12C): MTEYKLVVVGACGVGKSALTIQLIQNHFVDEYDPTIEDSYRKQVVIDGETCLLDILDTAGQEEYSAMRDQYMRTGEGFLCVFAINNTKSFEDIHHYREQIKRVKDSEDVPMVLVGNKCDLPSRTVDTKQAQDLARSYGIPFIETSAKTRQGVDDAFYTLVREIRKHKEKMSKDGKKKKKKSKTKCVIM

SMILES: C=C(F)C(=O)N1CCN(c2nc(OC[C@@H]3CCCN3CCCOCCC(=O)N[C@H](C(=O)N3C[C@H](O)C[C@H]3C(=O)NCc3ccc(-c4scnc4C)cc3)C(C)(C)C)nc3c2CCN(c2cccc4cccc(Cl)c24)C3)C[C@@H]1CC#N [LC-2, (2S,4R)-1-((S)-2-(3-(3-((S)-2-(((7-(8-chloronaphthalen-1-yl)-4-((S)-3-(cyanomethyl)-4-(2-fluoroacryloyl)piperazin-1-yl)-5,6,7,8-tetrahydropyrido[3,4-d]pyrimidin-2-yl)oxy)methyl)pyrrolidin-1-yl)propoxy)propanamido)-3,3-dimethylbutanoyl)-4-hydroxy-N-(4-(4-methylthiazol-5-yl)benzyl)pyrrolidine-2-carboxamide]
- total Erk versus DMSO [1]: increased
- phosphorylated Erk over time (pErk [2]; 24 hour time course): inhibited by 2.5 μM LC-2 between 1 and 4 hours, however pErk levels rebounded between 8 and 24 hours
- pErk levels versus DMSO (pErk [2]; 24 hours): significantly lower
- pErk (pErk [3]; NCI-H23, 2.5 μM LC-2, 6 and 24 hours): suppressed
- pErk signaling (pErk [3]; NCI-H23, 24 hour dose response): dose-dependent decrease in pErk
- total Erk levels (pErk [3]; NCI-H23, 24 hour dose response): elevated in a dose-dependent manner
- induction of KRAS^G12C degradation (KRAS^G12C): induces KRAS^G12C
